Results taken from ChEMBL document CHEMBL1201862, “PubChem BioAssay data set” (2004).
Values joined by “and” are separate entries in the source; they are usually repeats but may differ in a detail not shown here. Identical values can stand only once. Active and inactive are the calls of the source.

Columns and labels:
Cytochrome P450 3A4 = Cytochrome P450 3A4 (Homo sapiens, UniProt P08684);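 note: CYP3A4 tested as one member of a cytochrome P450 panel screen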
Cytochrome P450 2C9 = Cytochrome P450 2C9 (Homo sapiens, UniProt P11712)
H9c2 = assay: cells; type: functional, cell-based; conditions: Rattus norvegicus, H9c2, Myocardium;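 note: confirmatory concentration-response retest of ultra-high-throughput screening hits for modulation of myocardial damage; cell death induced by hydrogen peroxide oxidative stress; compound pretreatment for 60 min then peroxide exposure for 2 h; potency is for protecting the cells against peroxide damage rather than for killing them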
[1] = test system: Streptococcus sp. 'group A'; assay: Streptococcus pyogenes SK(-)GAS viability under kanamycin – luminescence, BacTiterGlo, confirmation, counter-screen for streptokinase expression inhibitor project, dose response (AID 1900); type: functional, organism-based
Streptococcus = assay: GAS UMAA2166 growth inhibition – luminescence, BacTiterGlo, counter-screen for streptokinase expression inhibitor project, dose response (AID 1915); type: functional, organism-based;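 note: potency for reduction of bacterial viability or growth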
Streptokinase A = molecular target: T1, Streptokinase A (Streptococcus pyogenes serotype M1, UniProt P10520); assay: viability-normalized secreted streptokinase activity reduction – plasminogen activation absorbance, OD405, dose response (AID 1914); type: functional, Streptococcus pyogenes M1 GAS;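 note: secreted streptokinase activity via plasminogen activation per viability signal from cell pellet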
T1 sequence (P10520 whole entry): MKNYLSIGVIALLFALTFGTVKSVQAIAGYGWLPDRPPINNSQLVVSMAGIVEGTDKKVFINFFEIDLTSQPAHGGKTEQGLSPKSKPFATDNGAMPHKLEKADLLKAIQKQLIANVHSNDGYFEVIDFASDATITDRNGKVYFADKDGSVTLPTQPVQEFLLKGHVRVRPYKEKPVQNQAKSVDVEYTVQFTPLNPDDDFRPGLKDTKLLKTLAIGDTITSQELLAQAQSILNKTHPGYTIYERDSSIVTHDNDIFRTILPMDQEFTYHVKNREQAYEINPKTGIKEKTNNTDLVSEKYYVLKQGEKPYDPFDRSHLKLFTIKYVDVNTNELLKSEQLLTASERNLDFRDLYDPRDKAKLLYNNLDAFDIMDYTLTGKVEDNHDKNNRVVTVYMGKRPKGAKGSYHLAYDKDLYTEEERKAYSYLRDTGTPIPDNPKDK

Cytochrome P450 2C19 = Cytochrome P450 2C19 (Homo sapiens, UniProt P33261); assay: Cytochrome panel assay with activity outcomes. Panel member name: p450-cyp2c19 Compounds with AC50 equal or less than 10 uM are considered active; type: functional; conditions: read-out: AC50
[2] = molecular target: T2, Rac GTPase-activating protein 1 (Homo sapiens, UniProt Q9H0H5); assay: blockers of MgcRacGAP-driven Rac1 GTP hydrolysis – biochemical, ADP Hunter fluorescence, primary and confirmatory, confirmation (AID 624330); type: functional
T2 sequence (Q9H0H5 whole entry): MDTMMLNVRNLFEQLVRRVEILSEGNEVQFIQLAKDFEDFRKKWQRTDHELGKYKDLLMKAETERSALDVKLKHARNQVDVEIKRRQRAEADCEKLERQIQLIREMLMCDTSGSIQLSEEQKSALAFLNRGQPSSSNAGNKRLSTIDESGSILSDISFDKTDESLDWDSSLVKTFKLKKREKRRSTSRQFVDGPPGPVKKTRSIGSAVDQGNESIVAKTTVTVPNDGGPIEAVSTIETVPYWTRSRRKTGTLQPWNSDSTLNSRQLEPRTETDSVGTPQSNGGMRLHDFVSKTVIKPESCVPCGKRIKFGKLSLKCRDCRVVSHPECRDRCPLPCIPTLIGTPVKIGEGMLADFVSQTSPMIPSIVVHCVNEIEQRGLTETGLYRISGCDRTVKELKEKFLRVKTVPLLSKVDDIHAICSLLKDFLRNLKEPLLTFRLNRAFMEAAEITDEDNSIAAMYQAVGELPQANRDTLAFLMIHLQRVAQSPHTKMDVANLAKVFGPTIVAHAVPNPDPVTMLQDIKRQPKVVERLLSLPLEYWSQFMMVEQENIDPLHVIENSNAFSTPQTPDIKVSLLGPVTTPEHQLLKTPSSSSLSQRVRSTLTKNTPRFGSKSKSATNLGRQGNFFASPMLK

INS1 = assay: INS-1E survival protection against cytokine death – cell-based, luminescence, retest, dose response (AID 449756); type: functional; conditions: Rattus norvegicus;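 note: cell death triggered by IL-1 beta plus TNF-alpha plus IFN-gamma mixture; protective hits raise ATP signal compared with cytokine alone wells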
[3] = molecular target: T3, Zinc finger protein mex-5 (Caenorhabditis elegans, UniProt Q9XUB2); assay: potency of MEX-5 RNA-binding blockers – biochemical, C. elegans, fluorescence polarization, dose response (AID 1960)
T3 sequence (Q9XUB2 whole entry): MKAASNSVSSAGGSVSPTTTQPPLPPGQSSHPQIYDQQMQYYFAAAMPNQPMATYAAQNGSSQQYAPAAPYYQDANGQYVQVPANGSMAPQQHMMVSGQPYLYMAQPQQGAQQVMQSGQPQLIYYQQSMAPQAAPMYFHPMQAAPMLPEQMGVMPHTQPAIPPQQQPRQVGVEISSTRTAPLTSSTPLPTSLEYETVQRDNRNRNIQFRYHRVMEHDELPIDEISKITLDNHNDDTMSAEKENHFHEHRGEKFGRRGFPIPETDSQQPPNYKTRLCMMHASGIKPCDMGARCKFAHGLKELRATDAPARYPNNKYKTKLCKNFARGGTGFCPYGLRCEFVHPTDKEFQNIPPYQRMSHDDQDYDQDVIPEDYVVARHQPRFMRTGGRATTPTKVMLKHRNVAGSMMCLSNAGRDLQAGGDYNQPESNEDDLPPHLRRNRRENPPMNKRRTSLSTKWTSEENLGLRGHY

[4] = molecular target: T4, RNA-binding protein pos-1 (Caenorhabditis elegans, UniProt G5EF15); assay: disruptors of C. elegans POS-1 RNA interaction – biochemical, fluorescence polarization, dose response (AID 1964);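 note: purified POS-1 fused to maltose binding protein made in E. coli; potency of compounds blocking POS-1 binding to fluorescent RNA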
T4 sequence (G5EF15 whole entry): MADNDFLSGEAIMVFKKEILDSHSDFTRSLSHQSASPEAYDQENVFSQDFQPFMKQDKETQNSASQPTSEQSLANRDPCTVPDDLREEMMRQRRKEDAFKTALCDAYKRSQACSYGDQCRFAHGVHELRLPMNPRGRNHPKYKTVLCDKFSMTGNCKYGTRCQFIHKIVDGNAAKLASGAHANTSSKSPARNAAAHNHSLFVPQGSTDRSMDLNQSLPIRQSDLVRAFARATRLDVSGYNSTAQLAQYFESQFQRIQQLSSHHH

Sequence of Cytochrome P450 2C19 (P33261 whole entry): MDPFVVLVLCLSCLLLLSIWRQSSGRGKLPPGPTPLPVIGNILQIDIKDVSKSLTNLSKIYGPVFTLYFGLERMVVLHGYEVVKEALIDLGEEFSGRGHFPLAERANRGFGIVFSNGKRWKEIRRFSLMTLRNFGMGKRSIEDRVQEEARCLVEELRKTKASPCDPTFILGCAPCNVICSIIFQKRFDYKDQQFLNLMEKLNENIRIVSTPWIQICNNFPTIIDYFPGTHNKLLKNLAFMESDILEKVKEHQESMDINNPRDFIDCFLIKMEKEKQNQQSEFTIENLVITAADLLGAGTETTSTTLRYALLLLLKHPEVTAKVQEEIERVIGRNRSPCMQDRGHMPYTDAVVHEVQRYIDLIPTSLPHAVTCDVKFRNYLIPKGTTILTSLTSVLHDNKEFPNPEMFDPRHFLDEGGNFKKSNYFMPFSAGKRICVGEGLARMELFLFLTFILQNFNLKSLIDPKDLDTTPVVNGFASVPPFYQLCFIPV
Sequence of Cytochrome P450 3A4 (P08684 whole entry): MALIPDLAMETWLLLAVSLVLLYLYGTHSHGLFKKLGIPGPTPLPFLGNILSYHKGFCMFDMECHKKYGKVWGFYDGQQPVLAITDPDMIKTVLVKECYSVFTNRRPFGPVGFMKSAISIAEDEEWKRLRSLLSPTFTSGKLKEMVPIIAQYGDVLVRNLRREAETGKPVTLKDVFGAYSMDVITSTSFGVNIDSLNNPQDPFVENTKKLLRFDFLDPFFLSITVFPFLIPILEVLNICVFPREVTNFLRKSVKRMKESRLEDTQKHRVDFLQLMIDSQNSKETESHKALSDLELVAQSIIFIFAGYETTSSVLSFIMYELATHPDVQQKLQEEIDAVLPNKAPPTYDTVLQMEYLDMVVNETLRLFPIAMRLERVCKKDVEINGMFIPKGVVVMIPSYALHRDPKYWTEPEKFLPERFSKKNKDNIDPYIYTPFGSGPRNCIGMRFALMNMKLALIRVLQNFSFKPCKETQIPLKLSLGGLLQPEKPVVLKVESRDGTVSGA
Sequence of Cytochrome P450 2C9 (P11712 whole entry): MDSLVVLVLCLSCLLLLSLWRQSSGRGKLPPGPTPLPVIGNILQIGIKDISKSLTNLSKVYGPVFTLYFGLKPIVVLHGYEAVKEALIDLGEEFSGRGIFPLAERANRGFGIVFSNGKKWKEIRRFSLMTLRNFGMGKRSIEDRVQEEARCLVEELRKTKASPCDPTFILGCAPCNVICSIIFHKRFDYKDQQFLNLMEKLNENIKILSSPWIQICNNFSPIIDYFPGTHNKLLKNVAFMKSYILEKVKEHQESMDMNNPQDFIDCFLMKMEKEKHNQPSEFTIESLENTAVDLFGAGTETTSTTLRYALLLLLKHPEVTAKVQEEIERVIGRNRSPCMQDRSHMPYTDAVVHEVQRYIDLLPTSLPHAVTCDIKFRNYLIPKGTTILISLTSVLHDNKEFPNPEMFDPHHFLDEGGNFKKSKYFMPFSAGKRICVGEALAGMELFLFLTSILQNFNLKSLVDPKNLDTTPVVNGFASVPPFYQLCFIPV

COC(=O)[C@H]1[C@H](c2ccccc2)C(=O)[C@@]2(O)c3ccccc3O[C@@]12c1ccccc1
AC50 (Cytochrome P450 3A4): 3.16 µM (inconclusive) | AC50 (Cytochrome P450 2C9): 6.31 µM (inconclusive)

O=C(Nc1cccc(-c2nc3cccnc3s2)c1)c1ccco1
IC50 (H9c2): > 79 µM (inactive)

Cc1cc(Oc2cnn(C(C)(C)C)c(=O)c2Cl)cc(C(C)C)c1
EC50 [1]: 6.31 µM (active) | EC50 (Streptococcus): 12.6 µM (active) | EC50 (Streptokinase A): 9.54 µM (active)

CC(=O)Nc1ccc(S(=O)(=O)NCC2CCC(C(=O)N3CCN(c4ccccn4)CC3)CC2)cc1 (stereo unspecified)
AC50 (Cytochrome P450 2C19): 10 µM (inconclusive) | AC50 (Cytochrome P450 2C9): 3.98 µM (inconclusive)

O=C1c2ccccc2CC1(Cc1ccccc1)Cc1ccccc1
EC50 [1]: 6.04 µM (active) | EC50 (Streptococcus): > 150 µM (not active) | EC50 (Streptokinase A): 12.9 µM (active)

C/C(CCN1CCc2nc(-c3ccccc3)c(-c3ccccc3)cc2C1)=N\O[C@@H](C)c1cn([C@H](CO)Cc2ccccc2)nn1
AC50 (Cytochrome P450 3A4): 3.98 µM (inconclusive) and 3.16 µM (inconclusive)

CCOc1ccc(NC(=O)c2cc3c(=O)n(C)c4ccccc4c3n2C)cc1
IC50 (H9c2): > 79 µM (inactive)

Cc1nc2cnc(N(C)C)nc2n(CCc2ccccc2)c1=O
AC50 (Cytochrome P450 3A4): 31.6 µM (inconclusive)

NCC[Se][Se]CCN
AC50 (Cytochrome P450 2C9): 0.316 µM (inconclusive)

COc1cc(/C=C/C(=O)OCC(=O)NC(=O)NC(C)C)ccc1O
IC50 [2]: 47.7 µM (active)

O=c1cnc2cnc(Nc3ccccc3)nc2n1Cc1ccc(F)cc1
AC50 (Cytochrome P450 2C9): 7.94 µM (inconclusive)

c1ccc2sc(NC3=NCN(C4CCCCCC4)CN3)nc2c1
AC50 (Cytochrome P450 3A4): 7.94 µM (inconclusive) | AC50 (Cytochrome P450 2C9): 39.8 µM (inconclusive)

CC(C)CC(=O)Nc1ccc2c(c1)oc1ccccc12
AC50 (Cytochrome P450 2C19): 2.82 µM (inconclusive) | AC50 (Cytochrome P450 2C9): 8.91 µM (inconclusive)

CCCn1nc(C(=O)OCC(=O)c2c(N)n(C)c(=O)n(C)c2=O)c2ccccc2c1=O
IC50 (H9c2): 17.1 µM (active)

CCOC(=O)c1c(NC(C)=O)sc2c(OC)cccc12
AC50 (Cytochrome P450 2C9): 5.01 µM (inconclusive)

COc1ccc(CC(=O)N(Cc2ccccc2)c2ccccc2)cc1S(=O)(=O)N1CCOCC1
IC50 (H9c2): 70.9 µM (inactive)

COc1cc(OC)c(Cl)cc1N
IC50 [2]: 35.9 µM (active)

CC(C)CN1CC[C@@]2(CCCN(S(=O)(=O)c3ccccc3)C2)C1
AC50 (Cytochrome P450 3A4): 5.01 µM (inconclusive)

CCCCn1cc[n+](C2=C([N-]S(=O)(=O)c3ccc(Cl)cc3)C(=O)c3ccccc3C2=O)c1
AC50 (INS1): 4.18 µM (active)

COc1cccc(OCC(O)CN2CCN(C)CC2)c1 (stereo unspecified)
IC50 [2]: 74.6 µM (active)

OC(CNC1CCCCC1)COCCOc1ccc(Br)cc1 (stereo unspecified)
AC50 (INS1): 61.9 µM (active)

O=C(CCc1nc(O)c2ccccc2n1)OCCOc1ccc(Cl)cc1
IC50 (H9c2): > 79 µM (inactive)

Fc1ccc(CNCCc2ccccc2)cc1
IC50 [2]: 249 µM (active)

O=C(OCC(=O)c1cccs1)c1cccc(C(=O)OCC(=O)c2cccs2)n1
AC50 (Cytochrome P450 3A4): 35.5 µM (inconclusive)

CCc1cc[n+](C2=Nc3ccccc3[N-]C2=C(C#N)C#N)cc1
AC50 (Cytochrome P450 2C19): 25.1 µM (inconclusive) | AC50 (Cytochrome P450 3A4): 15.8 µM (inconclusive) | AC50 (Cytochrome P450 2C9): 14.1 µM (inconclusive)

O=C(CN1CCN(S(=O)(=O)c2cc(Cl)ccc2Cl)CC1)c1ccc(O)c(O)c1
IC50 (H9c2): > 79 µM (inactive)

FC(F)(F)c1ccccc1-c1ccc2ncnc(N3CCOCC3)c2c1
AC50 (Cytochrome P450 3A4): 5.01 µM (inconclusive)

CC1Cc2ccccc2N1C(=O)Cn1cc([N+](=O)[O-])cn1 (stereo unspecified)
AC50 (Cytochrome P450 2C19): 11.2 µM (inconclusive) | AC50 (Cytochrome P450 2C9): 39.8 µM (inconclusive)

Cc1cc(-c2ccccc2)nc(O)c1S(=O)(=O)c1ccc(Cl)cc1
AC50 (Cytochrome P450 2C19): 5.62 µM (inconclusive) | AC50 (Cytochrome P450 2C9): 3.55 µM (inconclusive)

CCc1nnc(NC(=O)c2ccc(S(=O)(=O)N(C)c3ccccc3)cc2)o1
EC50 [1]: 7.35 µM (active) | EC50 (Streptococcus): 8.72 µM (active) | EC50 (Streptokinase A): > 150 µM (not active)

COc1ccc2nc(O)c(CNc3ccc(C)c(C)c3)cc2c1
IC50 (H9c2): > 79 µM (inactive)

Cc1cccc(C)c1OC(=O)C(c1ccccc1)c1ccccc1
EC50 [1]: 9.04 µM (active) | EC50 (Streptococcus): > 150 µM (not active) | EC50 (Streptokinase A): 17 µM (active)

CCOC(=O)c1cc(-c2nnc(-c3cc(OC)c(OC)c(OC)c3)o2)c(C)nc1C
IC50 (H9c2): > 79 µM (inactive)

O=C(Cc1ccc(Br)cc1)OCC(=O)c1ccc2c(c1)OCCO2
AC50 (Cytochrome P450 2C9): 7.94 µM (inconclusive)

CCn1nc(CC(C)C)cc1C(=O)N1CCCC(Nc2ccc(OC)cc2)C1 (stereo unspecified)
IC50 [2]: 121 µM (active)

COC(=O)c1c(NC(=O)c2ccn(C)n2)sc2c1CCC2
EC50 [1]: > 150 µM (not active) | EC50 (Streptococcus): > 150 µM (not active) | EC50 (Streptokinase A): > 150 µM (not active)

COc1ccc(-c2nc3cnc(N4CCN(C)CC4)nc3n(CCC#N)c2=O)cc1
AC50 (Cytochrome P450 3A4): 39.8 µM (inconclusive)

CCOC(=O)Cc1cc(O)n2ncc(-c3cccc(Br)c3)c2n1
EC50 [1]: 2.14 µM (active) | EC50 (Streptococcus): 18 µM (active) | EC50 (Streptokinase A): > 150 µM (not active)

COCCn1c(=O)cnc2cnc(OCc3ccccc3)nc21
AC50 (Cytochrome P450 3A4): 20 µM (inconclusive)

COC(=O)c1ccc(OCC(=O)Nc2ccccc2C(=O)NC2CC2)cc1
IC50 (H9c2): > 79 µM (inactive)

CC(=O)c1cccc(NC(=O)C(C)OC(=O)CCc2nc(O)c3ccccc3n2)c1 (stereo unspecified)
IC50 (H9c2): 15.7 µM (active)

Cc1cccc(N2C(S)=NC(=Nc3c(C)cccc3C)C23CCOC(C)(C)C3)c1 (stereo unspecified)
AC50 (INS1): 3.8 µM (active)

O=C(CN1C(=O)C2CC=CCC2C1=O)Nc1nc(-c2ccc(F)cc2)cs1 (stereo unspecified)
IC50 (H9c2): > 79 µM (inactive)

C=C[C@H](CC(C)C)N(Cc1ccccc1)S(=O)(=O)N(Cc1ccccc1)[C@@H](C=C)CC(C)C
AC50 (INS1): 5.4 µM (active)

CC(C)=NNc1cnnc2ccc([N+](=O)[O-])cc12
IC50 (H9c2): 8.8 µM (active)

COC(=O)c1[nH]c2cc(OC)c(OC)cc2c1/C=N/Nc1ccccc1
IC50 (H9c2): > 79 µM (inactive) | EC50 [3]: 20.3 µM (inconclusive) | EC50 [4]: 20 µM (active)

C/C(=N/NC(=O)c1cccs1)c1cccc(NC(=O)C2CC2)c1
IC50 (H9c2): > 79 µM (inactive)

Clc1nc2sccn2c1/C=N/n1cnc2ccccc21
IC50 (H9c2): > 79 µM (inactive)

C/C(=N\Nc1nc2ccc(Cl)cc2o1)c1ccccc1
EC50 [1]: 6.79 µM (active) | EC50 (Streptococcus): > 150 µM (not active) | EC50 (Streptokinase A): > 150 µM (not active)

N[C@@H](C(=O)O)[C@H](CC(=O)O)c1ccc(Cl)cc1
AC50 (Cytochrome P450 2C19): 25.1 µM (inconclusive) | AC50 (Cytochrome P450 2C9): 39.8 µM (inconclusive)

CN(C)c1ccccc1CN1CCCN(Cc2ccccc2N(C)C)C1c1ccncc1
AC50 (Cytochrome P450 3A4): 3.16 µM (inconclusive)
